Results from patent US20150083146A1, “PERSONAL VAPORIZER LIQUID FOR E[…]-SOLUBLE COMPOUNDS AND RESINS” (Verso PV, LLC, priority 2013, published 2015).
Where a name gives a salt, the structure may show the parent alone.

Columns and labels:
[1] = Emulsion stability (visual separation test; storage, sunlight, temperature); assay type: physicochemical; settings: after mixing with heat and agitation; initial observation
Description: In some embodiments of the present invention, a stable emulsion containing oil-soluble compounds and/or resins in a liquid base is provided. The stable emulsion may be stored in a container suitable for delivery to a consumer. The stable emulsion may be provided in a vial, cartridge or other container. Preferably the container is air-tight. The stability of the emulsion may be measured or quantified by no visible separation after 30 days.
In this example, a series of liquid compositions were prepared and evaluated for their emulsion stability. Varying compositions were tested that utilized different lipid solubilizers (8 in total). The liquid base in these compositions was propylene glycol. Test samples (liquid compositions including cannabis extract) were subjected to a range of conditions: temperature, sunlight, extended storage, and varied ingredient concentration. Various types of cannabis extract were also tested. For each test sample, observations were noted about the color, viscosity, general visual appearance of each sample, and any changes seen over time.
Materials and Methods: Testing was performed in 20 ml glass scintillation vials. Mixing of the liquid base and lipid solubilizer was done entirely in borosilicate glassware, and ingredients were measured by mass using an AND EJ-610 balance. Samples were heated using a Scilogex MS7-H55O digitally controlled hot plate. Cannabis extract was produced using an Apeks closed-system solvent extractor running instrument grade propane. […]
Formula preparation: Formulas using lipid solubilizers were prepared in three concentrations: 0.1%, 0.5% and 1.0% by mass, in a solvent base of propylene glycol. […] Stock solutions were made of each of the eight lipid solubilizers at each of the three concentrations, producing a total of 24 different formulas at a quantity of approximately 500 ml each. […] After cooling the formula was ready for use. […]
Test Sample preparation: For each sample, the appropriate quantity of cannabis extract and liquid formula were added to a vial. […]

[2] = Viscosity rating of liquid compositions (cannabis extract emulsions in propylene glycol formulas); assay type: physicochemical; settings: cannabis extract emulsion in propylene glycol
Description: The liquid composition comprising the oil-soluble compounds or resin should have a density and viscosity suitable for use in a personal vaporizer. […] For example, a liquid composition having a […] of about 100 cps, alternatively about 75 cps or less, alternatively about 50 cps or less, alternatively about 42 cps (the viscosity of propylene glycol) or more. The foregoing values can be combined to form a range. Viscosity values are determined at 25° C. using standard equipment for measuring viscosity of liquids.
Test Sample preparation: For each sample, the appropriate quantity of cannabis extract and liquid formula were added to a vial. The vial was placed on a hot plate at 85° C. until the extract melted. The vial was gently shaken to disperse the extract. Each of the formula recipes were tested with five concentrations of extract: 5%, 10%, 20%, 33%, and 50%, by mass. For example: to produce a 10% extract sample we placed 9.00 grams of one of the stock oil emulsifier formulas, and 1.00 grams of one of cannabis extracts in a 20 ml scintillation vial and applied heat. The components remained separate until heat and agitation are applied.
The viscosity of each sample is rated, in which “1” indicates lower viscosity, “2” indicates moderate viscosity, and “3” indicates higher viscosity.

| Molecule | formation of a stable emulsion [1] | viscosity (in words) [2] |
| --- | --- | --- |
| CCOC(=O)CC(O)(CC(=O)OCC)C(=O)OCC [triethyl citrate, Triethyl Citrate] | appeared to perform adequately |  |
| CC(=O)OCC(COC(C)=O)OC(C)=O [triacetin, Triacetin] | appeared to perform adequately |  |
| Propylene Glycol Monolaurate [PG-12] |  | most viscous |
| CCCCCCCCCCCC(=O)OCC(O)CO (centres unmarked) [Monolaurin, Glyceryl Monolaurate] | effective and flavorless emulsifier |  |
| CCCCCCCC(=O)OCC(O)CO (centres unmarked) [MCM C8, Glyceryl Caprylate] |  | least viscosity |
